ChEMBL document CHEMBL3885881, “DrugMatrix”

Organism: Rattus norvegicus
Experiment: DrugMatrix - Regimen: Daily Repeat
Type: toxicity, organism-based, Sprague-Dawley
Design: regimen Daily Repeat, gender Male, age 6-8 weeks
Conditions: in vivo, po, route oral GAVAGE, vehicle 100 % WATER; for ABSOLUTE BASOPHIL / ABSOLUTE EOSINOPHIL / ABSOLUTE LYMPHOCYTE / ABSOLUTE MONOCYTE / ABSOLUTE SEGMENTED NEUTROPHIL / BASOPHIL / EOSINOPHIL / ERYTHROCYTE COUNT / HEMATOCRIT / HEMOGLOBIN / LEUKOCYTE COUNT / LYMPHOCYTE / MEAN CORPUSCULAR HEMOGLOBIN / MEAN CORPUSCULAR HEMOGLOBIN CONCENTRATION / MEAN CORPUSCULAR VOLUME / MONOCYTE / NEUTROPHIL / NUCLEATED RED BLOOD CELLS / PLATELET COUNT: tissue Blood; for ALANINE AMINOTRANSFERASE / ALBUMIN / ALKALINE PHOSPHATASE / ASPARTATE AMINOTRANSFERASE / BLOOD UREA NITROGEN / CARBON DIOXIDE / CHLORIDE / CHOLESTEROL / CREATINE PHOSPHOKINASE / CREATININE / GLUCOSE / LACTATE DEHYDROGENASE / LIPASE / PHOSPHORUS / POTASSIUM / SODIUM / TOTAL BILIRUBIN / TOTAL PROTEIN / URIC ACID: tissue Plasma
[1] = 20 mg/kg, 72 h, dose level Low, time 3 day
[2] = 20 mg/kg, 120 h, dose level Low, time 5 day
[3] = 266 mg/kg, 72 h, dose level High, time 3 day
[4] = 266 mg/kg, 120 h, dose level High, time 5 day

## O=C(NCCN1CCOCC1)c1ccc(Cl)cc1 [MOCLOBEMIDE]
[1]
  ABSOLUTE BASOPHIL: 0 CELLS/uL
  ABSOLUTE EOSINOPHIL: 175 CELLS/uL
  ABSOLUTE LYMPHOCYTE: 12157.33 CELLS/uL
  ABSOLUTE MONOCYTE: 176.67 CELLS/uL
  ABSOLUTE SEGMENTED NEUTROPHIL: 691 CELLS/uL
  BASOPHIL: 0%
  EOSINOPHIL: 1%
  ERYTHROCYTE COUNT: 5.68 x10E6/uL
  HEMATOCRIT: 34.7%
  HEMOGLOBIN: 13.23 G/DL
  LEUKOCYTE COUNT: 13.2 x10E3/uL
  LYMPHOCYTE: 92.33%
  MEAN CORPUSCULAR HEMOGLOBIN: 23.33 pg
  MEAN CORPUSCULAR HEMOGLOBIN CONCENTRATION: 38.13 G/DL
  MEAN CORPUSCULAR VOLUME: 61.13 fL
  MONOCYTE: 1.33%
  NEUTROPHIL: 5.33%
  NUCLEATED RED BLOOD CELLS: 0 /100WBC
  PLATELET COUNT: 1220 x10E3/uL
  ALANINE AMINOTRANSFERASE: 54.33 u/L
  ALBUMIN: 4.07 G/DL
  ALKALINE PHOSPHATASE: 345 u/L
  ASPARTATE AMINOTRANSFERASE: 110.33 u/L
  BLOOD UREA NITROGEN: 17.33 mg/dL
  CARBON DIOXIDE: 23.67 mmol/L
  CHLORIDE: 102.67 MEQ/L
  CHOLESTEROL: 74 mg/dL
  CREATINE PHOSPHOKINASE: 379 u/L
  CREATININE: 0.2 mg/dL
  GLUCOSE: 174.67 mg/dL
  LACTATE DEHYDROGENASE: 728 u/L
  LIPASE: 9.67 u/L
  PHOSPHORUS: 14.07 mg/dL
  POTASSIUM: 6.99 MEQ/L
  SODIUM: 145.9 MEQ/L
  TOTAL BILIRUBIN: 0.2 mg/dL
  TOTAL PROTEIN: 5.7 G/DL
  URIC ACID: 2.03 mg/dL
[2]
  ABSOLUTE BASOPHIL: 0 CELLS/uL
  ABSOLUTE EOSINOPHIL: 0 CELLS/uL
  ABSOLUTE LYMPHOCYTE: 15547 CELLS/uL
  ABSOLUTE MONOCYTE: 117.33 CELLS/uL
  ABSOLUTE SEGMENTED NEUTROPHIL: 1669 CELLS/uL
  BASOPHIL: 0%
  EOSINOPHIL: 0%
  ERYTHROCYTE COUNT: 5.91 x10E6/uL
  HEMATOCRIT: 36.73%
  HEMOGLOBIN: 14.33 G/DL
  LEUKOCYTE COUNT: 17.33 x10E3/uL
  LYMPHOCYTE: 89.67%
  MEAN CORPUSCULAR HEMOGLOBIN: 24.33 pg
  MEAN CORPUSCULAR HEMOGLOBIN CONCENTRATION: 39 G/DL
  MEAN CORPUSCULAR VOLUME: 62.4 fL
  MONOCYTE: 0.67%
  NEUTROPHIL: 9.67%
  NUCLEATED RED BLOOD CELLS: 0 /100WBC
  PLATELET COUNT: 1391.67 x10E3/uL
  ALANINE AMINOTRANSFERASE: 57 u/L
  ALBUMIN: 4.1 G/DL
  ALKALINE PHOSPHATASE: 322.67 u/L
  ASPARTATE AMINOTRANSFERASE: 96.67 u/L
  BLOOD UREA NITROGEN: 15 mg/dL
  CARBON DIOXIDE: 27.33 mmol/L
  CHLORIDE: 101.33 MEQ/L
  CHOLESTEROL: 70.67 mg/dL
  CREATINE PHOSPHOKINASE: 318 u/L
  CREATININE: 0.17 mg/dL
  GLUCOSE: 156.67 mg/dL
  LACTATE DEHYDROGENASE: 488 u/L
  LIPASE: 9.67 u/L
  PHOSPHORUS: 13.7 mg/dL
  POTASSIUM: 6.88 MEQ/L
  SODIUM: 145.17 MEQ/L
  TOTAL BILIRUBIN: 0.17 mg/dL
  TOTAL PROTEIN: 5.83 G/DL
  URIC ACID: 1.63 mg/dL
[3]
  ABSOLUTE BASOPHIL: 0 CELLS/uL
  ABSOLUTE EOSINOPHIL: 201.33 CELLS/uL
  ABSOLUTE LYMPHOCYTE: 17920 CELLS/uL
  ABSOLUTE MONOCYTE: 282 CELLS/uL
  ABSOLUTE SEGMENTED NEUTROPHIL: 1130 CELLS/uL
  BASOPHIL: 0%
  EOSINOPHIL: 0.67%
  ERYTHROCYTE COUNT: 5.8 x10E6/uL
  HEMATOCRIT: 36.67%
  HEMOGLOBIN: 14.43 G/DL
  LEUKOCYTE COUNT: 19.53 x10E3/uL
  LYMPHOCYTE: 92%
  MEAN CORPUSCULAR HEMOGLOBIN: 24.93 pg
  MEAN CORPUSCULAR HEMOGLOBIN CONCENTRATION: 39.37 G/DL
  MEAN CORPUSCULAR VOLUME: 63.27 fL
  MONOCYTE: 1.33%
  NEUTROPHIL: 6%
  NUCLEATED RED BLOOD CELLS: 0 /100WBC
  PLATELET COUNT: 1228 x10E3/uL
  ALANINE AMINOTRANSFERASE: 45 u/L
  ALBUMIN: 4.27 G/DL
  ALKALINE PHOSPHATASE: 348 u/L
  ASPARTATE AMINOTRANSFERASE: 85.67 u/L
  BLOOD UREA NITROGEN: 15.67 mg/dL
  CARBON DIOXIDE: 27 mmol/L
  CHLORIDE: 102 MEQ/L
  CHOLESTEROL: 91.67 mg/dL
  CREATINE PHOSPHOKINASE: 407 u/L
  CREATININE: 0.2 mg/dL
  GLUCOSE: 135.33 mg/dL
  LACTATE DEHYDROGENASE: 202.33 u/L
  LIPASE: 9.67 u/L
  PHOSPHORUS: 12.33 mg/dL
  POTASSIUM: 5.98 MEQ/L
  SODIUM: 144.7 MEQ/L
  TOTAL BILIRUBIN: 0.13 mg/dL
  TOTAL PROTEIN: 5.67 G/DL
  URIC ACID: 1.47 mg/dL
[4]
  ABSOLUTE BASOPHIL: 0 CELLS/uL
  ABSOLUTE EOSINOPHIL: 57.67 CELLS/uL
  ABSOLUTE LYMPHOCYTE: 16939.67 CELLS/uL
  ABSOLUTE MONOCYTE: 123 CELLS/uL
  ABSOLUTE SEGMENTED NEUTROPHIL: 946.33 CELLS/uL
  BASOPHIL: 0%
  EOSINOPHIL: 0.33%
  ERYTHROCYTE COUNT: 6.33 x10E6/uL
  HEMATOCRIT: 38.47%
  HEMOGLOBIN: 15.33 G/DL
  LEUKOCYTE COUNT: 18.07 x10E3/uL
  LYMPHOCYTE: 93.67%
  MEAN CORPUSCULAR HEMOGLOBIN: 24.23 pg
  MEAN CORPUSCULAR HEMOGLOBIN CONCENTRATION: 39.87 G/DL
  MEAN CORPUSCULAR VOLUME: 60.77 fL
  MONOCYTE: 0.67%
  NEUTROPHIL: 5.33%
  NUCLEATED RED BLOOD CELLS: 0 /100WBC
  PLATELET COUNT: 1501 x10E3/uL
  ALANINE AMINOTRANSFERASE: 44 u/L
  ALBUMIN: 4.3 G/DL
  ALKALINE PHOSPHATASE: 312.33 u/L
  ASPARTATE AMINOTRANSFERASE: 75.67 u/L
  BLOOD UREA NITROGEN: 16 mg/dL
  CARBON DIOXIDE: 26 mmol/L
  CHLORIDE: 100.67 MEQ/L
  CHOLESTEROL: 75.67 mg/dL
  CREATINE PHOSPHOKINASE: 226.33 u/L
  CREATININE: 0.15 mg/dL
  GLUCOSE: 155.33 mg/dL
  LACTATE DEHYDROGENASE: 246.67 u/L
  LIPASE: 10.33 u/L
  PHOSPHORUS: 12.43 mg/dL
  POTASSIUM: 6.84 MEQ/L
  SODIUM: 143.43 MEQ/L
  TOTAL BILIRUBIN: 0.17 mg/dL
  TOTAL PROTEIN: 6.2 G/DL
  URIC ACID: 2.3 mg/dL
